Measurements reported in patent EP0213571A2, “3-Aminomethyl pyrrol-1-yl-alkyl amines and medicaments containing these compounds” (BASF Aktiengesellschaft, priority 1985, dated 1987).

Tested on: Histamin-H₂-Rezeptor
Test: Antagonism of the dimaprit-induced fall in blood pressure in the anaesthetised rat, test substance given i.v.
Format: in vivo, Ratten (Stamm: Sprague-Dawley, männlich)
Experimental: Sie kann in 1 bis 4 Dosen/Tag aufgeteilt werden.
Zum Nachweis der Histamin-H₂-Rezeptor-blockierenden Wirkung wird folgende Methode angewendet.
Die Applikation der geprüften Substanzen erfolgt intravenös 5 min vor der Dimaprit-Injektion. Als ED 50 % werden die Dosen ermittelt, welche die Dimaprit-Blutdrucksenkung um 50 % hemmen.

CNC(=NC#N)NCCSCc1nc[nH]c1C [Cimetidin]
Hemmung der Dimaprit-Blutdrucksenkung (anaesthetised rats (urethane 1,78 g/kg i.p.), substance i.v. 5 min before Dimaprit 3,16 mg/kg i.v.): hemmen diese Dimaprit-Blutdrucksenkung dosisabhängig

CN(C)CCCSC(=N)N [Dimaprit, S-[3-(N,N-dimethylamino)propyl]isothio urea]
Blutdrucksenkungen (Dimaprit 3,16 mg/kg i.v. alone, anaesthetised rats, mean, baseline pressure 100 ± 1, 1 mmHg, N = 70): 27 ± 0,7 mmHg

CNC(=NC#N)NCCCCn1c(C)ccc1C [Verbindung des Beispiels 12]
Histamin-H₂-Rezeptoren-blockierende Wirkung (result in words, potency compared with Cimetidin, b35 names no test, assigned to the only test described): wesentlich schwächer wirksam als Cimetidin
